Measurements as given in patent publication US8802597B2, “Herbicidal pyrimidines” (E I du Pont de Nemours and Company, priority 2003, dated 2014).

Experiments:
Assay in all cases: Test C pre/postemergence
Assay type in all cases: in vivo
[1] = system: common (oilseed) sunflower (Helianthus annuus); settings: Helianthus annuus, pre-emergence, Preemergence, read-out: Plant response rating, Sunflower
Method in brief: (§1)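 Pre: seeds planted, sprayed same day. Post: 1- to 4-leaf plants (2–18 cm). Formulation: non-phytotoxic solvent + surfactant. Greenhouse 12–14 d; visual % control vs untreated, 0–100.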

[2] = system: cocklebur (Xanthium strumarium); settings: Xanthium strumarium, pre-emergence, Preemergence, read-out: Plant response rating, Cocklebur
Method in brief: as §1

[3] = system: goosegrass (Eleusine indica); settings: Eleusine indica, pre-emergence, Preemergence, read-out: Plant response rating, Goosegrass
Method in brief: as §1

[4] = system: bermudagrass (Cynodon dactylon); settings: Cynodon dactylon, pre-emergence, Preemergence, read-out: Plant response rating, Bermudagrass
Method in brief: as §1

[5] = system: velvetleaf (Abutilon theophrasti); settings: Abutilon theophrasti, pre-emergence, Preemergence, read-out: Plant response rating, Velvetleaf
Method in brief: as §1

[6] = system: pigweed (Amaranthus retroflexus); settings: Amaranthus retroflexus, pre-emergence, Preemergence, read-out: Plant response rating, Pigweed
Method in brief: as §1

soybean (Glycine max) = settings: Glycine max, pre-emergence, Preemergence, read-out: Plant response rating, Soybean
Method in brief: as §1

kochia (Kochia scoparia) = settings: Bassia scoparia, pre-emergence, Preemergence, read-out: Plant response rating, Kochia
Method in brief: as §1

[7] = system: eastern black nightshade (Solanum ptycanthum); settings: Solanum, pre-emergence, Preemergence, read-out: Plant response rating, Nightshade
Method in brief: as §1

[8] = system: lambsquarters (Chenopodium album); settings: Chenopodium album, pre-emergence, Preemergence, read-out: Plant response rating, Lambsquarters
Method in brief: as §1

[9] = system: common ragweed (Ambrosia elatior); settings: Ambrosia artemisiifolia, pre-emergence, Preemergence, read-out: Plant response rating, Ragweed
Method in brief: as §1

[10] = system: johnsongrass (Sorghum halepense); settings: Sorghum halepense, pre-emergence, Preemergence, read-out: Plant response rating, Johnsongrass
Method in brief: as §1

[11] = 62 g ai/ha, scale 0 to 100, 0 no effect, 100 complete control

## Nc1nc(C2CC2)nc(C=O)c1Br [Compound 26]
[1]; [11]
  pest or weed control at 62 g/ha: 0%
[1]; 125 g ai/ha, scale 0 to 100
  pest or weed control at 125 g/ha: 20%
[1]; 250 g ai/ha, scale 0 to 100
  pest or weed control at 250 g/ha: 70%
[1]; 500 g ai/ha, scale 0 to 100
  pest or weed control at 500 g/ha: 90%
[2]; [11]
  pest or weed control at 62 g/ha: 70%
[2]; 125 g ai/ha, scale 0 to 100
  pest or weed control at 125 g/ha: 70%
[2]; 250 g ai/ha, scale 0 to 100
  pest or weed control at 250 g/ha: 90%
[2]; 500 g ai/ha, scale 0 to 100
  pest or weed control at 500 g/ha: 95%
[3]; [11]
  pest or weed control at 62 g/ha: 0%
[3]; 125 g ai/ha, scale 0 to 100
  pest or weed control at 125 g/ha: 0%
[3]; 250 g ai/ha, scale 0 to 100
  pest or weed control at 250 g/ha: 0%
[3]; 500 g ai/ha, scale 0 to 100
  pest or weed control at 500 g/ha: 0%
[4]; [11]
  pest or weed control at 62 g/ha: 0%
[4]; 125 g ai/ha, scale 0 to 100
  pest or weed control at 125 g/ha: 0%
[4]; 250 g ai/ha, scale 0 to 100
  pest or weed control at 250 g/ha: 0%
[4]; 500 g ai/ha, scale 0 to 100
  pest or weed control at 500 g/ha: 0%
[5]; [11]
  pest or weed control at 62 g/ha: 0%
[5]; 125 g ai/ha, scale 0 to 100
  pest or weed control at 125 g/ha: 10%
[5]; 250 g ai/ha, scale 0 to 100
  pest or weed control at 250 g/ha: 90%
[5]; 500 g ai/ha, scale 0 to 100
  pest or weed control at 500 g/ha: 90%
[6]; [11]
  pest or weed control at 62 g/ha: 30%
[6]; 125 g ai/ha, scale 0 to 100
  pest or weed control at 125 g/ha: 100%
[6]; 250 g ai/ha, scale 0 to 100
  pest or weed control at 250 g/ha: 100%
[6]; 500 g ai/ha, scale 0 to 100
  pest or weed control at 500 g/ha: 100%
Soybean (Glycine max); [11]
  plant injury at 62 g/ha: 0%
Soybean (Glycine max); 125 g ai/ha, scale 0 to 100
  plant injury at 125 g/ha: 10%
Soybean (Glycine max); 250 g ai/ha, scale 0 to 100
  plant injury at 250 g/ha: 10%
Soybean (Glycine max); 500 g ai/ha, scale 0 to 100
  plant injury at 500 g/ha: 20%
Kochia (Kochia scoparia); [11]
  pest or weed control at 62 g/ha: 0%
Kochia (Kochia scoparia); 500 g ai/ha, scale 0 to 100
  pest or weed control at 500 g/ha: 50%
[7]; [11]
  pest or weed control at 62 g/ha: 10%
[7]; 125 g ai/ha, scale 0 to 100
  pest or weed control at 125 g/ha: 100%
[7]; 250 g ai/ha, scale 0 to 100
  pest or weed control at 250 g/ha: 100%
[7]; 500 g ai/ha, scale 0 to 100
  pest or weed control at 500 g/ha: 100%
[8]; [11]
  pest or weed control at 62 g/ha: 10%
[8]; 500 g ai/ha, scale 0 to 100
  pest or weed control at 500 g/ha: 90%
[9]; [11]
  pest or weed control at 62 g/ha: 0%
[9]; 125 g ai/ha, scale 0 to 100
  pest or weed control at 125 g/ha: 10%
[9]; 250 g ai/ha, scale 0 to 100
  pest or weed control at 250 g/ha: 85%
[9]; 500 g ai/ha, scale 0 to 100
  pest or weed control at 500 g/ha: 90%
[10]; [11]
  pest or weed control at 62 g/ha: 0%
[10]; 250 g ai/ha, scale 0 to 100
  pest or weed control at 250 g/ha: 0%
[10]; 500 g ai/ha, scale 0 to 100
  pest or weed control at 500 g/ha: 100%
